Measured values reported in US20220040255A1, “CHEMOTHERAPEUTIC REMODELING OF THE GUT MICROBIOME” (THE SCRIPPS RESEARCH INSTITUTE, priority 2018, published 2022).
Where a SMILES comes first, the peptide text is derived from it. [ ]: non-standard residue; d: D form.

Legend:
[1] = test system: gut microbiota transcriptome; assay: bacterial RNA-seq of feces (microbiota transcriptome); assay type: in vivo, LDLr−/− mice
Method: Bacterial RNA-seq sample preparation and sequencing. Total bacterial RNA from feces samples was isolated with ZR Soil/Fecal RNA MicroPrep (Zymo research) following the manufacturer's instructions. Briefly, the sample was suspended in RNA lysis buffer and lysed by the mixer (Retsch). The supernatant was transferred to a RNA-binding column and washed several times with RNA wash buffer. In-column DNaseI digestion at 25° C. for 15 min was performed to eliminate DNA contamination in the sample. The presence of genomic DNA contamination was assessed by PCR with universal 16S rRNA gene primers. Before RNA-seq library preparation, rRNA was removed from 2 μg of total bacterial RNA with Ribo-Zero Bacteria kit (Illumina). 100 ng of purified RNA was used for RNA-seq library preparation as described previously^56. The cDNA was synthesized by reverse transcription with SuperScript III (Life technologies) and second-strand synthesis (New England Biolabs). The sequencing library was generated from purified cDNA with Nextera XT DNA library preparation kit (Illumina) and amplified by PCR. Cycling conditions were 72° C. for 3 min, 95° C. for 30 s, followed by 16 cycles of 95° C. for 10 s, 55° C. for 30 s, and 72° C. for 30 s. A condition of 72° C. for 5 min was used for the final elongation step. Libraries with different indexes were pooled and single-end sequencing (75 bp) was performed on an Illumina NextSeq at the Scripps Research Institute next generation sequencing core.
Functional analysis of bacterial RNA-seq data. We used BWA (version 0.7.12) read alignment program and a custom-built bacterial reference database, which contains 4,700 bacterial genomes from NCBI NR sequence database, to map RNA-seq reads. The reads aligned to individual bacterial genes were counted using HTSeq count (version 0.6.0) and the counts were further normalized based on size factors estimated using the median of the ratios of observed counts method as described previously (Anders et al., Genome Biol. 11, R106, 2010). The proteins predicted by RNA-seq read alignment were annotated with DIAMOND (version 0.8.26) using the NCBI nonredundant (NCBI-nr) database and the default setting (BLASTX e value <10^−3, bit score >50). For query genes with multiple matches, the annotated reference gene with the lowest e value was chosen. The functional analysis was performed by MEGAN (version 5.11.3) and KEGG analyzer was used to determine read counts in different metabolic pathways from each group. The aggregate expression level changes for sequences within a given function were normalized before the comparison between each group.

total bile acid = assay: bulk (total) bile acid quantification; assay type: in vivo, LDLr−/− mice; settings: 2-wk treatment
Method: Bulk bile acid quantification. Total bile acids were measured enzymatically using a total bile acid assay kit (Cell Biolabs) following manufacturer's instruction. Feces were obtained between 0900-1100 am from non-fasted animals after a 2-wk treatment period. The extraction of bile acid from feces was performed as described in Yu et al., J. Biol. Chem. 275, 15482-15489, 2000. In brief, the feces from individual mice were collected, weighed, and agitated in 75% ethanol in an ultrasonic bath at 50° C. for 2 h. After centrifugation at 3,500 g for 10 min, the supernatant was transferred to a new tube and diluted with 25% PBS. The total bile acid level was then determined enzymatically using the kit. For plasma samples, the plasma was diluted 1:10 with 25% PBS prior to enzymatic bile acid measurement using the kit.

[2] = Pharmacokinetics of c[wLwReQeR] via different routes of administration; assay type: in vivo, mice
Method: Pharmacokinetics. These experiments were carried out in part courtesy of Carol S. Ryan, Debra J. Search, Ricardo A. Garcia, and David A. Gordon at Bristol Myers Squibb (Hopewell, N.J., USA). Male Balb/C or C57BL/6 mice (20 g) were maintained on a chow diet. The cyclic peptide c[wLwReQeR] (SEQ ID NO:11) was dissolved in PBS containing 1% sucrose or 95% 50 mM acetate buffer containing 10% sucrose, 5% DMSO (pH=4), and sterile filtered through a 0.22-μm syringe filter before injection. Mice were fasted beginning 12 h before dosing, and continued the fast until after the 8-h time point blood draw was completed. Groups of three mice received a dose of the cyclic peptide via […] (5 mL/kg for subcutaneous and intraperitoneal, 10 mL/kg for oral gavage). Blood was drawn (30-60 μL) from the retro-orbital sinus into a heparinized capillary tube before dosing (0 min) and at different intervals from 30 min to 8 h after dosing. Plasma was isolated immediately from the whole blood by centrifugation at 5,000 rpm for 10 min at 4° C. Immediately after the plasma was isolated, 20 μL of plasma was acidified with 20 μL of 5% TFA to break peptide-protein interactions, and 40 μL of acetonitrile was then added. After vortexing for 30 s, the mixture was centrifuged at 13,000 rpm for 10 min at 4° C. The resultant supernatant was analyzed by using LC-MS SIM as described below.
LC-MS SIM quantitation of peptide concentration. Cyclic peptide concentrations were quantified by using reverse-phase HPLC coupled with mass spectrometry. The electrospray ionization mass spectrometry measurements were carried out in the positive ionization mode using a single quadrupole mass spectrometer (Hewlett Packard HP 1100 MSD series). 10 or 20 μL of sample were injected through a C8 reverse-phase column (Zorbax 300-SB, 4.6 mm×150 mm, 5 μm) using a flow rate of 1.5 mL/min and binary gradients of solvent A (99% H2O, 0.1% formic acid, 0.01% TFA) and solvent B (99% acetonitrile, 0.1% formic acid, 0.01% TFA). Mass detection was carried out in the selected ion monitoring (SIM) mode for the positive molecular ion, with the optimized fragmentor and capillary voltages of 180 V and 5 kV, respectively. The selected monitoring mass for cyclic peptide c[wLwReQeR] (SEQ ID NO:11) was 592.8 ([M+2H]^2+). For quantitative calibration, standard curves were established using mouse EDTA-anticoagulated plasma spiked with various concentrations of the peptide. The calibration curve was established by using linear fitting of the data, with correlation coefficient ≥0.98.

CC(C)C[C@@H]1NC(=O)[C@@H](Cc2c[nH]c3ccccc23)NC(=O)[C@H](CCCNC(=N)N)NC(=O)[C@@H](CCC(=O)O)NC(=O)[C@H](CCC(N)=O)NC(=O)[C@@H](CCC(=O)O)NC(=O)[C@H](CCCNC(=N)N)NC(=O)[C@@H](Cc2c[nH]c3ccccc23)NC1=O [c[wLwReQeR]] (cyclo([dW]L[dW]R[dE]Q[dE]R))
overall gene expression from Bacteroidetes ([1]; feces, 2-week treatment): increased | overall gene expression from Firmicutes ([1]; feces, 2-week treatment): reduced | acetoacetate-CoA transferase levels compared to vehicle ([1]; microbiota transcriptome): higher | butyryl-CoA dehydrogenase levels compared to vehicle ([1]; microbiota transcriptome): lower | total bile acid in the feces, peptide-treated vs. control WD-fed mice (total bile acid; feces): two-fold higher | total bile acid in the plasma, peptide-treated vs. control WD-fed mice (total bile acid; plasma): three-fold lower | Tmax ([2]; male, C57BL/6, mouse, plasma, oral gavage, 15 mg/kg, C57B1/6): < 3 h | AUC(0-t) ([2]; male, C57BL/6, mouse, plasma, oral gavage, 15 mg/kg, C57B1/6, read-out: AUC 0-24 h): < 3 nM·h | Cmax ([2]; male, mouse, plasma, ip, 16-mg/kg i.p., BALB/c mice, read-out: peak plasma concentration): 13 µM | peptide in plasma after oral gavage ([2]; oral gavage, limit of detection=3 nM): not detectable
